Reference: patent US20160279215A1, “NOVEL PEPTIDES AND COMBINATION OF PEPTIDES FOR USE IN IMMUNOTHERAPY AGAINST VARIOUS TUMORS” (immatics biotechnologies GmbH, priority 2015, published 2016)

Legend:
[1] = system: CD8+ T cells of healthy HLA-A*02 donors; assay: In vitro immunogenicity: T-cell priming with aAPCs loaded with peptide/MHC and anti-CD28, pMHC multimer readout; format: cell-based, human; conditions: for Wells positive [%]: in vitro immunogenicity, HLA-A*02 restricted peptides, percentage of positive wells among evaluable; for donors: percentage of positive donors; for donors / wells: in vitro immunogenicity of HLA class I peptides; for wells: percentage of positive wells
Source text: In order to obtain information regarding the immunogenicity of the TUMAPs of the present invention, the inventors performed investigations using an in vitro T-cell priming assay based on repeated stimulations of CD8+ T cells with artificial antigen presenting cells (aAPCs) loaded with peptide/MHC complexes and anti-CD28 antibody.
In order to perform in vitro stimulations by artificial antigen presenting cells loaded with peptide-MHC complex (pMHC) and anti-CD28 antibody, the inventors first isolated CD8+ T cells from fresh HLA-A*02 leukapheresis products via positive selection using CD8 microbeads (Miltenyi Biotec, Bergisch-Gladbach, Germany) of healthy donors obtained from the University clinics Mannheim, Germany, after informed consent. PBMCs and isolated CD8+ lymphocytes were incubated in T-cell medium (TCM) until use consisting of RPMI-Glutamax (Invitrogen, Karlsruhe, Germany) supplemented with 10% heat inactivated human AB serum (PAN-Biotech, Aidenbach, Germany), 100 U/ml Penicillin/100 μg/ml Streptomycin (Cambrex, Cologne, Germany), 1 mM sodium pyruvate (CC Pro, Oberdorla, Germany), 20 μg/ml Gentamycin (Cambrex). 2.5 ng/ml IL-7 (PromoCell, Heidelberg, Germany) and 10 U/ml IL-2 (Novartis Pharma, Nürnberg, Germany) were also added to the TCM at this step. Generation of pMHC/anti-CD28 coated beads, T-cell stimulations and readout was performed in a highly defined in vitro system using four different pMHC molecules per stimulation condition and 8 different pMHC molecules per readout condition.
The purified co-stimulatory mouse IgG2a anti human CD28 Ab 9.3 (Jung et al., 1987) was chemically biotinylated using Sulfo-N-hydroxysuccinimidobiotin as recommended by the manufacturer (Perbio, Bonn, Germany). Beads used were 5.6 μm diameter streptavidin coated polystyrene particles (Bangs Laboratories, Illinois, USA).
pMHC used for positive and negative control stimulations were A*0201/MLA-001 (peptide […] (SEQ ID NO. 289) from modified Melan-A/MART-1) and A*0201/DDX5-001 ([…] from DDX5, SEQ ID NO. 290), respectively.
800.000 beads/200 μl were coated in 96-well plates in the presence of 4×12.5 ng different biotin-pMHC, washed and 600 ng biotin anti-CD28 were added subsequently in a volume of 200 μl. Stimulations were initiated in 96-well plates by co-incubating […] CD8+ T cells with 2×10^5 washed coated beads in 200 μl TCM supplemented with 5 ng/ml IL-12 (PromoCell) for 3 days at 37° C. Half of the medium was then exchanged by fresh TCM supplemented with 80 U/ml IL-2 and incubating was continued for 4 days at 37° C. This stimulation cycle was performed for a total of three times. For the pMHC multimer readout using 8 different pMHC molecules per condition, a two-dimensional combinatorial coding approach was used as previously described (Andersen et al., 2012) with minor modifications encompassing coupling to 5 different fluorochromes. Finally, multimeric analyses were performed by staining the cells with Live/dead near IR dye (Invitrogen, Karlsruhe, Germany), CD8-FITC antibody clone SK1 (BD, Heidelberg, Germany) and fluorescent pMHC multimers. For analysis, a BD LSRII SORP cytometer equipped with appropriate lasers and filters was used. Peptide specific cells were calculated as percentage of total CD8+ cells. Evaluation of multimeric analysis was done using the FlowJo software (Tree Star, Oreg., USA). In vitro priming of specific multimer+ CD8+ lymphocytes was detected by comparing to negative control stimulations.
Exemplary flow cytometry results after TUMAP-specific multimer staining for 15 peptides of the invention are shown in FIGS. 3 and 6 together with corresponding negative controls.

[2] = target: T1, HLA-A*02:01 (Homo sapiens, UniProt P04439, D140Y/D185E/D98H/E176V/E277Q/G131W/G231S/I119V/I121R/I166T/I218V/L300P/L318F/N151K/N90K/P208A/P217A/Q86G/Q94H/R138H/R169H/T345S); assay: MHC binding assay: UV-ligand exchange with β2m ELISA (peptide exchange yield); conditions: binding to HLA-A*02:01 evaluated by peptide exchange yield (UV-ligand exchange, β2m ELISA)
T1 construct: made in house
Outline: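 Peptide–MHC complexes formed by UV-ligand exchange, cleaving a UV-sensitive peptide so the test peptide can bind. Exchange yield measured by ELISA: complexes captured on streptavidin-coated wells, diluted 100-fold, detected with HRP anti-β2m (1 h, 37 °C) and TMB at 450 nm, against refolded HLA-A*02:01/MLA-001 standards (15-500 ng/ml).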

Substance	Wells positive [%] [1]	Peptide exchange [2]	donors [1]	wells [1]
35 (VIIKGLEEI; listed as Homo sapiens) [compound 35]	+ (<20% = +)	++ (≧20% = ++)		
275 (AVPPPPSSV; listed as Homo sapiens) [compound 275]	++ (20%-49% = ++)	++ (≧20% = ++)		
288 (SLYKGLLSV; listed as Homo sapiens) [compound 288]			++++ (>= 70% = ++++)	++ (21%-49% = ++)
9 (SLITGQDLLSV; listed as Homo sapiens) [compound 9]	+ (<20% = +)	+++ (≧50 = +++)		
253 (KLLAVIHEL; listed as Homo sapiens) [compound 253]	++ (20%-49% = ++)	+++ (≧50 = +++)		
102 (GLYPVTLVGV; listed as Homo sapiens) [compound 102]	+ (<20% = +)	+++ (≧50 = +++)		
77 (ALYGNVQQV; listed as Homo sapiens) [compound 77]	+ (<20% = +)	+++ (≧50 = +++)		
101 (SLLEVNEASSV; listed as Homo sapiens) [compound 101]	+ (<20% = +)	+++ (≧50 = +++)		
7 (ALLQALMEL; listed as Homo sapiens) [compound 7]	++ (20%-49% = ++)	+++ (≧50 = +++)		
17 (GLLPSAESIKL; listed as Homo sapiens) [compound 17]	+ (<20% = +)	++++ (≧75% = ++++)		
287 (KIQEILTQV; listed as Homo sapiens) [compound 287]			+++ (50%-69% = +++)	+ (<20% = +)
267 (YLLDMPLWYL; listed as Homo sapiens) [compound 267]	+ (<20% = +)	+++ (≧50 = +++)		
234 (VLLNEILEQV; listed as Homo sapiens) [compound 234]	++ (20%-49% = ++)	++++ (≧75% = ++++)		
166 (LLGDSSFFL; listed as Homo sapiens) [compound 166]	++ (20%-49% = ++)	+++ (≧50 = +++)		
254 (ALGDKFLLRV; listed as Homo sapiens) [compound 254]	+ (<20% = +)	++ (≧20% = ++)		
92 (RLFEEVLGV; listed as Homo sapiens) [compound 92]	++ (20%-49% = ++)	++++ (≧75% = ++++)		
264 (TLHDQVHLL; listed as Homo sapiens) [compound 264]	+ (<20% = +)	++ (≧20% = ++)		
89 (SLAETIFIV; listed as Homo sapiens) [compound 89]	+ (<20% = +)	+++ (≧50 = +++)		
246 (ALAGIVTNV; listed as Homo sapiens) [compound 246]	+ (<20% = +)	+++ (≧50 = +++)		

Substance	Wells positive [%] [1]	Peptide exchange [2]	donors [1]	wells [1]
242 (KLQEEIPVL; listed as Homo sapiens) [compound 242]	+ (<20% = +)	+++ (≧50 = +++)		
11 (LLDPKTIFL; listed as Homo sapiens) [compound 11]	++ (20%-49% = ++)	+++ (≧50 = +++)		
255 (FLMKNSDLYGA; listed as Homo sapiens) [compound 255]	+ (<20% = +)	+++ (≧50 = +++)		
263 (SIIEYLPTL; listed as Homo sapiens) [compound 263]	+ (<20% = +)	+++ (≧50 = +++)		
233 (SLFESLEYL; listed as Homo sapiens) [compound 233]	+ (<20% = +)	+++ (≧50 = +++)		
117 (TLLEGISRA; listed as Homo sapiens) [compound 117]	++ (20%-49% = ++)	++ (≧20% = ++)		
121 (ALYVQAPTV; listed as Homo sapiens) [compound 121]	+ (<20% = +)	++ (≧20% = ++)		
29 (KMISAIPTL; listed as Homo sapiens) [compound 29]	+ (<20% = +)	++ (≧20% = ++)		
257 (KLIDHQGLYL; listed as Homo sapiens) [compound 257]	+ (<20% = +)	+++ (≧50 = +++)		
260 (ALNESLVEC; listed as Homo sapiens) [compound 260]	+ (<20% = +)	+++ (≧50 = +++)		
50 (ILLSVLHQL; listed as Homo sapiens) [compound 50]	+ (<20% = +)	+++ (≧50 = +++)		
251 (LLWGNLPEI; listed as Homo sapiens) [compound 251]	++ (20%-49% = ++)	+++ (≧50 = +++)		
157 (ILQDGQFLV; listed as Homo sapiens) [compound 157]	+ (<20% = +)	++ (≧20% = ++)		
97 (KLFEKSTGL; listed as Homo sapiens) [compound 97]	+ (<20% = +)	+++ (≧50 = +++)		
27 (GLLGKVTSV; listed as Homo sapiens) [compound 27]	+ (<20% = +)	+++ (≧50 = +++)		
236 (KMSELQTYV; listed as Homo sapiens) [compound 236]	+ (<20% = +)	+++ (≧50 = +++)		
14 (YTFSGDVQL; listed as Homo sapiens) [compound 14]	+ (<20% = +)	+++ (≧50 = +++)		
4 (VLFGELPAL; listed as Homo sapiens) [compound 4]	+ (<20% = +)	+++ (≧50 = +++)		
